Experimental data: patent US20260138970A1, “MODULATORS OF THE CALCIUM SIGNALING CASCADE” (FONDAZIONE TELETHON ETS, priority 2022, published 2026)

What was measured:
Format in all cases: cell-based
TMEM16A [1] = assay: HS-YFP assay in FRT cells co-expressing TMEM16A and HS-YFP; settings: for potentiation of the effect of UTP on TMEM16A: primary screening and secondary tests, compounds 10 μM
Method: Experiments were performed using an automated microplate reader (FLUOstar Omega, BMG Labtech, Offenburg, Germany) equipped with syringe pumps and optical excitation/emission filters optimized for yellow fluorescent protein (YFP) fluorescence (ET500/20× and ET535/30m, respectively; Chroma Technology Corporation). FRT cells with co-expression of TMEM16A and HS-YFP were plated at high density in black wall/clear bottom 96-well microplates (3603, Corning). Each well in microplates was washed 3 times with 150 μl of phosphate-buffered saline (PBS). After washing, each well received 60 μl of PBS containing test compounds at 10 μM final concentration, or TMEM16A inhibitor Ani9 (15) (10 μM), or vehicle. After 20 min of incubation at 37° C., microplates were transferred to the plate reader for fluorescence assay. Each well was assayed individually for TMEM16A-mediated I^− influx by sampling cell fluorescence every 200 ms for 14 s. Two seconds after the start of reading, 165 μl of a modified PBS containing 137 mM KI, instead of NaCl, plus UTP 0.25 μM were automatically added by the reader. K^+ was used in the injected solution to prevent changes of membrane potential due to altered activity of Ca^2+-activated K^+ channels. The fluorescence trace in each well was corrected by background subtraction and then normalized for the initial value measured before I^− addition (F0). The cumulative fluorescence quenching (CFQ) in the time interval between 3 and 13.8 s (representing integration of TMEM16A-dependent I^− influx) was quantified using a procedure compiled in Microsoft Excel according to the formula
For the screening, FRT cells were plated at high density in 96-well microplates. After 48 h, TMEM16A activity was evaluated in a microplate reader by injection in each well of a saline solution containing I^− instead of Cl^− and a submaximal (0.25 μM) UTP concentration (FIG. 1A). Upon injection, UTP triggers Ca^2+ mobilization and TMEM16A activation. The resulting TMEM16A-dependent I^− influx causes HS-YFP quenching. The presence in the well of a small molecule that potentiates TMEM16A activity, in a direct or indirect way, is therefore expected to enhance the rate of HS-YFP quenching.

TMEM16A [2] = assay: Short-circuit current recordings on FRT epithelia with stable expression of TMEM16A; settings: compounds 10 μM; UTP 0.25 μM apical; vs vehicle; FIG. 1C
Method: Snapwell supports (3801, Corning) carrying FRT and differentiated HBEC epithelia were mounted in a vertical chamber resembling an Ussing system with internal fluid circulation (EM-CSYS-8, Physiologic Instruments, San Diego, CA, USA). For FRT epithelia, the apical and basolateral hemichambers were filled with solutions of different composition. The apical solution (5 ml) contained (in mM): 63 NaCl, 63 sodium gluconate, 0.38 KH2PO4, 2.13 K2HPO4, 2 CaCl2, 1 MgSO4, 20 Na-Hepes (pH 7.3), and 10 glucose. The basolateral solution (5 ml) instead contained (in mM): 126 KCl, 0.38 KH2PO4, 2.13 K2HPO4, 1 CaCl2, 1 MgSO4, 20 Na-Hepes (pH 7.3), and 10 glucose. Both solutions were continuously bubbled with air and the temperature of the solution was kept at 37° C. For HBECs, the same (bicarbonate-buffered) solution was used in both chambers. The composition of this solution was (in mM): 126 NaCl, 0.38 KH2PO4, 2.13 K2HPO4, 1 MgSO4, 1 CaCl2), 24 NaHCO3, and 10 glucose. Both sides were continuously bubbled with a gas mixture containing 5% CO2 and 95% air. The temperature of the solution was kept at 37° C. throughout the experiment.
Transepithelial voltage was short-circuited with a voltage-clamp (VCC MC8, Physiologic Instruments, San Diego, CA, USA) connected to the apical and basolateral chambers via Ag—AgCl electrodes and agar bridges (2% agar in 1 M KCl). The offset between voltage electrodes and the fluid resistance were cancelled before experiments. The resulting short-circuited current from each channel was recorded on a personal computer with the Acquire & Analize 2.3 software (Physiologic Instruments, San Diego, CA, USA).

ITPR3 = biological target: T1, ITPR3 (Homo sapiens, UniProt Q14573); assay: Fluo-4 Ca2+ assay, UTP, HEK293 cells with selective expression of ITPR3 (HEKR3); settings: compounds 10 μM; UTP 5 μM; FIG. 2C
T1 construct: host or cells: HEKR3 (HEK293)
Method: (§1) HEK293 cells totally devoid of ITPR expression (HEK3XKO) or with selective expression of ITPR1 (HEKR1), ITPR2 (HEKR2), or ITPR3 (HEKR3), obtained by selective gene ablation, were purchased from Kerafast (catalog number: EURO30, EURO31, EURO32, EURO33) and cultured in a mixture of Dulbecco's Modified Eagle Medium (DMEM, high glucose version) and Ham's F12 (1:1) and supplemented with 10% fetal bovine serum, 2 mM L-glutamine, 100 U/ml penicillin and 100 μg/ml streptomycin.
(§2) Experiments were performed using the microplate reader described for the HS-YFP assay. FRT and HEK293 cells were cultured until confluence in 96-well microplates (3603, Corning). Cells were washed 2 times with PBS (150 μl/wash) and then loaded for 1 h at 37° C. with 5 μM Fluo-4/AM (Thermo Fisher Scientific; catalog number: F23917) in PBS containing 10 mM glucose, 0.5 mM sulfinpyrazone, and 1% fetal bovine serum. After loading, cells were washed 2 times with PBS-glucose-sulfinpyrazone (150 μl/wash) and incubated for 20 min at 37° C. with 60 μl of PBS plus 10 mM glucose and 0.5 mM sulfinpyrazone containing compounds of interest at 10 μM final concentration or vehicle. Each well was assayed individually. Fluo-4 fluorescence (500 nm excitation, 535 nm emission) was detected every 200 ms for 16-40 s. Two seconds after the start of fluorescence recording, the reader automatically injected 165 μl of a modified PBS containing 136 mM KCl instead of NaCl. This solution also contained 10 mM glucose, 0.5 mM sulfinpyrazone, and UTP or SLIGR-NH2 (CAS #171436-38-7) at a final concentration that depended on the specific cell type. For UTP we used: 0.25 μM for FRT; 1 μM for HEKR2; 5 μM for HEK3XKO, HEKR1, and HEKR3. For SLIGR-NH2 we used: 10 μM for HEKR1; 4 μM for HEKR2. These concentrations were chosen to elicit ˜20% of maximal effect based on UTP and SLIGR-NH2 dose-response relationships. […] The Fluo-4 fluorescence increase was quantified using a procedure compiled in Microsoft Excel after background subtraction and normalization for the initial value measured before UTP addition.

ITPR1 = ITPR1 (Homo sapiens, UniProt Q14643); assay: Fluo-4 Ca2+ assay, UTP, HEK293 cells with selective expression of ITPR1 (HEKR1); design: host or cells: HEKR1 (HEK293); settings: compounds 10 μM; UTP 5 μM; FIG. 2C
Method: as §1, §2

[3] = FRT cells expressing TMEM16A, UTP 0.25 μM, FIG. 1D

T1 sequence (Q14573 whole entry): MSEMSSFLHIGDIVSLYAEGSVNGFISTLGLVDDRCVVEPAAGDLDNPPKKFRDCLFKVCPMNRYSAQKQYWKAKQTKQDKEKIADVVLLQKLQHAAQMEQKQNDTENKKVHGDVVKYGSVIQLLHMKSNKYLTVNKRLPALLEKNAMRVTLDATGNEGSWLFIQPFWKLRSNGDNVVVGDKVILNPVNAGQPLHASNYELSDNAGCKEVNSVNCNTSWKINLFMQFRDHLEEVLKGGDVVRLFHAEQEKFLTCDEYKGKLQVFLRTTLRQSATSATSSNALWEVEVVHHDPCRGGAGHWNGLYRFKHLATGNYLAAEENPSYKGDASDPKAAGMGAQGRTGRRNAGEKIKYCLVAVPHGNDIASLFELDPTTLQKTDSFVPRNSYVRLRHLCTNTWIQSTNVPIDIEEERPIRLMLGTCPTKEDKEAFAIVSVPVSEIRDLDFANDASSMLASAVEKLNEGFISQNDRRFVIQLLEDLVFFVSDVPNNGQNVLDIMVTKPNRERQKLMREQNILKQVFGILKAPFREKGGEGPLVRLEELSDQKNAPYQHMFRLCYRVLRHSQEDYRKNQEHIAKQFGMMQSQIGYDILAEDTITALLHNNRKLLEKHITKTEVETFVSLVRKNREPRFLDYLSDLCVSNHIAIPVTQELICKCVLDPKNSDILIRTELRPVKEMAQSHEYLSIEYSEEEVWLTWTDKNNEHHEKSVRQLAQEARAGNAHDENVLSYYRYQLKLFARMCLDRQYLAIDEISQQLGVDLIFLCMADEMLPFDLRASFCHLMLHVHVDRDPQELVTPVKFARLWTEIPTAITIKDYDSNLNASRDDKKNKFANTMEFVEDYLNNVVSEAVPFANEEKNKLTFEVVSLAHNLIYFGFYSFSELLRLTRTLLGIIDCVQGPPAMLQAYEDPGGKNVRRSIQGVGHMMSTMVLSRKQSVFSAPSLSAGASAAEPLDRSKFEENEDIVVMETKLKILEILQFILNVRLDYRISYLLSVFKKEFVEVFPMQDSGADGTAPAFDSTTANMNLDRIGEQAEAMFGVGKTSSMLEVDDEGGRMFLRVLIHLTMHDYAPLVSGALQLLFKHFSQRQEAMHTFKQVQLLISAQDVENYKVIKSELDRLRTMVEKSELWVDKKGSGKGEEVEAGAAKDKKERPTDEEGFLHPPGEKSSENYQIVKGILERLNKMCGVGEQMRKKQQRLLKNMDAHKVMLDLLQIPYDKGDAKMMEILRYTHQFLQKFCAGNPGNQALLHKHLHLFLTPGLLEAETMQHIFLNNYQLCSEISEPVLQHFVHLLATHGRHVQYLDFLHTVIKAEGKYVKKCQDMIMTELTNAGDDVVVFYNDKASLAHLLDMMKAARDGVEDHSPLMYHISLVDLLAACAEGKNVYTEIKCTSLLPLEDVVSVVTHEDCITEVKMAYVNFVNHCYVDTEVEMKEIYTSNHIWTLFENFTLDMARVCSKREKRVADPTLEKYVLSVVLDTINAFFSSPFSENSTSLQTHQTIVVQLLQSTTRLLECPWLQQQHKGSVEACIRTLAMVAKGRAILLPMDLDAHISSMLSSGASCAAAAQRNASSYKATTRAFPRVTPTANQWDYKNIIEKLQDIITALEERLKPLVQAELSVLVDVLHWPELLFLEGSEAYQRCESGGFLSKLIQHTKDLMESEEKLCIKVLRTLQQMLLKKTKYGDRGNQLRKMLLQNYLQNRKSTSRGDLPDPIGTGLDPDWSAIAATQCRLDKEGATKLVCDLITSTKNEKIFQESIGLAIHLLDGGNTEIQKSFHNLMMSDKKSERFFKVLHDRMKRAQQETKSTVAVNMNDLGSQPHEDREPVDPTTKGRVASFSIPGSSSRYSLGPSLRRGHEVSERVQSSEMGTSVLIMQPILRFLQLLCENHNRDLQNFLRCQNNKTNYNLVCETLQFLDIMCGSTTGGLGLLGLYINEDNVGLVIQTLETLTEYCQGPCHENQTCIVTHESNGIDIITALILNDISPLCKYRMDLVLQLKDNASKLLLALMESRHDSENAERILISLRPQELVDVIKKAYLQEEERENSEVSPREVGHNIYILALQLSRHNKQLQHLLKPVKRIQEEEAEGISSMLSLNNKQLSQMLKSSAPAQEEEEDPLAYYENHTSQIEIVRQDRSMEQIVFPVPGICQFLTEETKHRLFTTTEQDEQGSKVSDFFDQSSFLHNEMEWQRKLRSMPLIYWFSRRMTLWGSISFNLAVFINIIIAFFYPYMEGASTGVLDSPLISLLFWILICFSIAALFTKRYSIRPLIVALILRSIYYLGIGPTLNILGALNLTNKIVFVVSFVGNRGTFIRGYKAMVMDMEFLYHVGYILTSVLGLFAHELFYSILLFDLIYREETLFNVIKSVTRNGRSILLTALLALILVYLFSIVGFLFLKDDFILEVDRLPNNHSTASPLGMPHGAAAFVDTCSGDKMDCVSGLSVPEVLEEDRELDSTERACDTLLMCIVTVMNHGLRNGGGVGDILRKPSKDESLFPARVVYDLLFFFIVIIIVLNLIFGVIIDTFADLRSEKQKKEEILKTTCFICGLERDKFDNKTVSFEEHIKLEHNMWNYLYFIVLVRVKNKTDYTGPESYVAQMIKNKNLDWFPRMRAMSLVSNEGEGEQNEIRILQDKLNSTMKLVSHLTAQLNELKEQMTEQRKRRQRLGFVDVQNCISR

| SMILES | concentrations at which effective / active, dose-response by HS-YFP assay (TMEM16A [1]; [3]) | potentiation of the effect of UTP on TMEM16A (TMEM16A [1]) | peak of Cl- current elicited by UTP (short-circuit current) (TMEM16A [2]) | potentiation of UTP-elicited Ca2+ increase, ITPR3-only cells (ITPR3) | potentiation of UTP-elicited Ca2+ increase, ITPR1-only cells (ITPR1) | shape of dose-response relationship, HS-YFP assay (TMEM16A [1]; [3]) |
| --- | --- | --- | --- | --- | --- | --- |
| OCc1ccccc1CN(Cc1ccnc(N2CCCC2)n1)c1ccc(F)cc1 [ARN4550, [2-[[4-Fluoro-N-[(2-pyrrolidin-1-ylpyrimidin-4-yl)methyl]anilino]methyl]phenyl]methanol] | 10 µM | significantly potentiated | significantly enhanced | always effective | always effective | – |
| CCc1cc(-c2cc(NCCCOc3ccccc3C)nc(N)n2)n(C)n1 [ARN7149, 6-(3-Ethyl-1-methyl-1H-pyrazol-5-yl)-N^4-(3-(o-tolyloxy)propyl)pyrimidine-2,4-diamine] | 5 to 20 µM | significantly potentiated | significantly enhanced | always effective | always effective | bell-shaped |
| CCn1nc2c(c1C(=O)Nc1ccccc1OCC1CCCCO1)CCCC2 (stereo not shown) [ARN11391, 2-Ethyl-N-[2-(tetrahydropyran-2-ylmethoxy)phenyl]-4,5,6,7-tetrahydroindazole-3-carboxamide] | 10 µM | significantly potentiated | significantly enhanced | only effective in cells with ITPR1 | effective | – |
